From patent US20180296630A1, “METHODS AND COMPOSITIONS FOR PREVENTING OR TREATING OPHTHALMIC CONDITIONS” (Stealth BioTherapeutics Corp, priority 2012, published 2018) come the findings set out here.

The test system of data set [1] is human retinal epithelial cells (HREC). Briefly: Survival of HRECs in high glucose (Annexin V/PI, flow cytometry). Format: cell-based. To be noted: for survival ratio for HRECs (Q3): 24 hours. The text has this: Methods of HREC culture useful in the studies of the present invention are known. See generally, Li B, Tang S B, Zhang G, Chen J H, Li B J. Culture and characterization of human retinal capillary endothelial cell. Chin Ophthal Res 2005; 23: 20-2; Premanand C, Rema M, Sameer M Z, Sujatha M, Balasubramanyam M. Effect of curcumin on proliferation of human retinal endothelial cells under in vitro conditions. Invest Ophthalmol Vis Sci 2006; 47: 2179-84.
Briefly, HREC cells were divided into three groups: a normal control group; a group administered 30 mM glucose; and a group administered 30 mM glucose+D-Arg-2′,6′-Dmt-Lys-Phe-NH2. Survival of HRECs in high glucose co-treated with different concentrations of D-Arg-2′,6′-Dmt-Lys-Phe-NH2 (10 nM, 100 nM, 1 μM, 10 μM) was measured using an Annexin V+PI assay and flow cytometry. See generally, Koopman, G., Reutelingsperger, C. P., Kuijten, G. A. M., Keehnen, R. M. J., Pals, S. T., and van Oers, M. H. J. 1994. Annexin V for flow cytometric detection of phosphatidylserine expression on B cells undergoing apoptosis. Blood 84: 1415; Homburg, C. H., de Haas, M., von dem Borne, A. E., Verhoeven, A. J., Reutelingsperger, C. P., and Roos, D. 1995. Human neutrophils lose their surface Fc gamma RIII and acquire Annexin V binding sites during apoptosis in vitro. Blood 85: 532; Vermes, I., Haanen, C., Steffens-Nakken, H., and Reutelingsperger, C. 1995. A novel assay for apoptosis—flow cytometric detection of phosphatidylserine expression on early apoptotic cells using fluorescein labelled Annexin V. J. Immunol. Meth. 184: 39; Fadok, V. A., Voelker, D. R., Campbell, P. A., Cohen, J. J., Bratton, D. L., and Henson, P. M. 1992. Exposure of phosphatidylserine on the surface of apoptotic lymphocytes triggers specific recognition and removal by macrophages. J. Immunol. 148: 2207.
The survival of HRECs in high glucose co-treated with D-Arg-2′,6′-Dmt-Lys-Phe-NH2 was tested at 24 h and 48 h.
A general note: In flow cytometry, cells or beads pass a laser one at a time.

In data set [2] the test system is GTM3 cells. Briefly: MMP decline, sustained oxidative injury by H2O2, GTM3 cells. Format: cell-based, human. The conditions noted are these: then 200 μM H2O2 24 h. The method, then: The effects of D-Arg-2′,6′-Dmt-Lys-Phe-NH2 on sustained oxidative injury of GTM and HTM cells was examined. Cells were pre-treated with 10^−6, 10^−7, 10^−8M of D-Arg-2′,6′-Dmt-Lys-Phe-NH2 for 1 h, and then incubated with 200 μM H2O2 for 24 h to investigate the protective effect of D-Arg-2′,6′-Dmt-Lys-Phe-NH2 in sustained oxidative stress.

Data set [3] concerns primary human retinal pigment epithelial (RPE) cells. Briefly: Viability of primary RPE cells incubated with peptide alone (MTT). Type of data set: cell-based. The conditions noted are these: different concentrations of peptide alone; 24 h. On the procedure:
Primary retinal pigment epithelial (RPE) cells were cultured to test the effects of the aromatic-cationic peptides of the invention in preventing or reducing oxidative damage in these cells. Methods useful for the study of primary retinal pigment epithelial cells have been described. See, Dunn et al., ARPE-19, A Human Retinal Pigment Epithelial Cell Line with Differentiated Properties, Experimental Eye Research, 1996, 62(2): 155-170. […] Primary cultured human RPE cells were incubated with different concentrations of D-Arg-2′,6′-Dmt-Lys-Phe-NH2 alone for a period of 24 h, and cell viability was determined by a MTT assay (FIG. 22).

Data set [4] has as its system STZ-treated mice. In words: Spatial frequency (SPF) threshold in STZ-treated / diabetic-diet mice. Format: in vivo. The method, then: Subjects were maintained on a normal diet (ND) or diabetic diet (DD) for up to 32 weeks, and were administered D-Arg-2′,6′-Dmt-Lys-Phe-NH2 or control vehicle with or without streptozotocin. Results are shown in FIG. 41, with response values are averaged for each eye.

Data set [5] deals with OIR mouse model. In words: Oxygen-induced retinopathy (OIR) mouse model. Format: in vivo. The text has this: In this model, 7-day-old mouse pups with partially developed retinal vasculature were subjected to hyperoxia (75% oxygen) for 5 days, which stops retinal vessel growth and causes significant vaso-obliteration. On postnatal day 12, the pups were returned to room air, and by postnatal day 17, a florid compensatory retinal neovascularization occurred. This model of pathological neovascularization has been widely used as a substitute for proliferative diabetic retinopathy (DR).
To examine the effects of the aromatic-cationic peptides of the invention on prevention of OIR, OIR was induced in mouse pups and the mice were simultaneously administered an aromatic-cationic peptide (e.g., Phe-D-Arg-Phe-Lys-NH2 or D-Arg-2′,6′-Dmt-Lys-Phe-NH2) for approximately 6 weeks. The results are shown in FIG. 26 and indicate that treatment with D-Arg-2′,6′-Dmt-Lys-Phe-NH2 prevented the compensatory retinal neovascularization. As such, the aromatic-cationic peptides of the invention are useful in methods of preventing proliferative diabetic retinopathy in mammalian subjects.

For data set [6], the system named is STZ and HFD/STZ diabetic rats. In words: Inner blood-retinal barrier function (Evans blue extravasation) in diabetic SD rats. Format: in vivo, Sprague-Dawley rat. To be noted: compared to rats on a HFD not administered peptide. On the procedure: FIGS. 10A and 10B are charts showing the integrity of the blood-retinal barrier of normal rats (NRC), diabetic rats, and diabetic rats treated with Phe-D-Arg-Phe-Lys-NH2 (SS-20) or D-Arg-2′,6′-Dmt-Lys-Phe-NH2(SS-31), as analyzed by Evans blue extravasation. (A) diabetes induced by STZ; (B) diabetes induced by HFD/STZ.
A rat model of diabetes was established by combination of 6-week HFD and low dose of STZ (30 mg/kg) injection or a single high dose of STZ (65 mg/kg) in SD rats. See generally, K. Srinivasan, B. Viswanad, Lydia Asrat, C. L. Kaul and P. Ramarao, Combination of high-fat diet-fed and low-dose streptozotocin-treated rat: A model for type 2 diabetes and pharmacological screening, Pharmacological Research, 52(4): 313-320, 2005. Rats of the same batch fed with normal chow (NRC) were used as a control.
The effect of the aromatic-cationic peptides on the inner blood-retinal barrier function in the SD rat model was investigated.

Some results are limits rather than exact numbers.

Regarding D-Arg-2′,6′-Dmt-Lys-Phe-NH2, the “survival ratio for HRECs (Q3)” value is reported as 84.3% in data set [1] (10 nM co-treatment with 30 mM glucose), 90.7% in data set [1] (100 nM co-treatment with 30 mM glucose), 92.8% in data set [1] (1 μM co-treatment with 30 mM glucose) and 94.3% in data set [1] (10 μM co-treatment with 30 mM glucose). For the same substance, in data set [1] (co-treatment, tested at 24 h and 48 h), the “survival of HRECs in high glucose” value is listed as “significantly improved”. Moreover, the “MMP Decline” value was −31.33 ± 1.20 % in data set [2] (0.01 μM pre-treatment 1 h), −29.33 ± 2.19 % in data set [2] (0.1 μM pre-treatment 1 h) and −24.33 ± 4.18 % in data set [2] (1 μM pre-treatment 1 h). For the same substance, the “cell viability (MTT assay)” value in data set [3] was “did not adversely effect these cells”. In data set [4] (STZ-treated animals maintained on a diabetic diet, eyedrop), the “rescue of visual impairment by eyedrop versus systemic administration” value is “one month sooner”. In data set [4] (STZ-treated animals, systemic treatment initiated at 12 weeks), the “time by which the visual deficit was fully rescued” value is listed as at most 24 weeks. Also, the “time by which rescue was shown” value in data set [4] (animals on a diabetic diet alone) is at most 30 weeks. Also, the “time by which the visual deficit was fully restored” value in data set [4] (animals on a diabetic diet and administered STZ) is given as at most 24 weeks. The “visual impairment (spatial frequency threshold)” value in data set [4] (animals with metabolic dysfunction) is given as “rescued”. Also, in data set [5] (OIR mouse model (FIG. 26)), the avascular area result is “reduced”. Further, the compensatory retinal neovascularization result in data set [5] (OIR mouse pups) is “prevented”. Besides, the “inner blood-retinal barrier function” value in data set [6] is reported as “improved”.
